{
  "source": "paper PMC10041525",
  "about": "“New Dual Inhibitors of Bacterial Topoisomerases with Broad-Spectrum Antibacterial Activity and In Vivo Efficacy against Vancomycin-Intermediate Staphylococcus aureus” (Journal of Medicinal Chemistry, 2023)",
  "tested_on": "100 A. baumannii strains (50 MDR, 50 non-MDR)",
  "experiment": "MIC broth microdilution at IHMA Europe, panel of 100 strains",
  "assay_type": "cell-based",
  "details": "for MIC / MIC50 / MIC90: Acinetobacter baumannii; for MIC50: read-out: MIC 50; for MIC90: read-out: MIC 90",
  "note": "Where two headings read alike, the source gives them in different places.",
  "data": [
    {"smiles": "CO/N=C(\\C(=O)N[C@@H]1C(=O)N2C(C(=O)[O-])=C(C[N+]3(C)CCCC3)CS[C@H]12)c1csc(N)n1", "note": "[Cefepime, cefepime]", "values": [
      {"measurement": "MIC", "setting": "A. baumannii IHMA 2156634, Turkey 2020, MDR, read-out: MIC", "value": "> 32", "unit": "µg/mL"},
      {"measurement": "MIC", "setting": "A. baumannii IHMA 2156709, Turkey 2020, MDR, read-out: MIC", "value": "> 32", "unit": "µg/mL"},
      {"measurement": "MIC", "setting": "A. baumannii IHMA 2177232, Lithuania 2020, MDR, read-out: MIC", "value": 32, "unit": "µg/mL"},
      {"measurement": "MIC", "setting": "A. baumannii IHMA 2177489, Lithuania 2020, MDR, read-out: MIC", "value": "> 32", "unit": "µg/mL"},
      {"measurement": "MIC", "setting": "A. baumannii IHMA 2178574, Ukraine 2020, Non-MDR, read-out: MIC", "value": "≤ 0.25", "unit": "µg/mL"},
      {"measurement": "MIC", "setting": "A. baumannii IHMA 2180134, Malaysia 2020, Non-MDR, read-out: MIC", "value": 1, "unit": "µg/mL"},
      {"measurement": "MIC", "setting": "A. baumannii IHMA 2180142, Malaysia 2020, MDR, read-out: MIC", "value": "> 32", "unit": "µg/mL"},
      {"measurement": "MIC", "setting": "A. baumannii IHMA 2181370, Morocco 2020, MDR, read-out: MIC", "value": "> 32", "unit": "µg/mL"},
      {"measurement": "MIC", "setting": "A. baumannii IHMA 2183849, Argentina 2020, Non-MDR, read-out: MIC", "value": 1, "unit": "µg/mL"},
      {"measurement": "MIC", "setting": "A. baumannii IHMA 2184382, Japan 2020, Non-MDR, read-out: MIC", "value": 1, "unit": "µg/mL"},
      {"measurement": "MIC", "setting": "A. baumannii IHMA 2193375, Venezuela 2020, MDR, read-out: MIC", "value": "> 32", "unit": "µg/mL"},
      {"measurement": "MIC", "setting": "A. baumannii IHMA 2193485, Venezuela 2020, Non-MDR, read-out: MIC", "value": 1, "unit": "µg/mL"},
      {"measurement": "MIC", "setting": "A. baumannii IHMA 2193607, Venezuela 2020, MDR, read-out: MIC", "value": "> 32", "unit": "µg/mL"},
      {"measurement": "MIC", "setting": "A. baumannii IHMA 2196914, South Africa 2020, MDR, read-out: MIC", "value": 32, "unit": "µg/mL"},
      {"measurement": "MIC", "setting": "A. baumannii IHMA 2196959, South Africa 2020, MDR, read-out: MIC", "value": "> 32", "unit": "µg/mL"},
      {"measurement": "MIC", "setting": "A. baumannii IHMA 2203763, Spain 2020, MDR, read-out: MIC", "value": "> 32", "unit": "µg/mL"},
      {"measurement": "MIC", "setting": "A. baumannii IHMA 2205144, Korea, South 2020, MDR, read-out: MIC", "value": 32, "unit": "µg/mL"},
      {"measurement": "MIC", "setting": "A. baumannii IHMA 2206459, Taiwan 2020, MDR, read-out: MIC", "value": "> 32", "unit": "µg/mL"},
      {"measurement": "MIC", "setting": "A. baumannii IHMA 2206507, Taiwan 2020, Non-MDR, read-out: MIC", "value": 0.5, "unit": "µg/mL"},
      {"measurement": "MIC", "setting": "A. baumannii IHMA 2215307, Hong Kong 2020, Non-MDR, read-out: MIC", "value": 1, "unit": "µg/mL"},
      {"measurement": "MIC", "setting": "A. baumannii IHMA 2216586, Taiwan 2020, MDR, read-out: MIC", "value": 32, "unit": "µg/mL"},
      {"measurement": "MIC", "setting": "A. baumannii IHMA 2223200, Colombia 2020, Non-MDR, read-out: MIC", "value": 1, "unit": "µg/mL"},
      {"measurement": "MIC", "setting": "A. baumannii IHMA 2224017, Panama 2020, MDR, read-out: MIC", "value": 32, "unit": "µg/mL"},
      {"measurement": "MIC", "setting": "A. baumannii IHMA 2224303, Panama 2020, Non-MDR, read-out: MIC", "value": 4, "unit": "µg/mL"},
      {"measurement": "MIC", "setting": "A. baumannii IHMA 2231797, Greece 2020, MDR, read-out: MIC", "value": "> 32", "unit": "µg/mL"},
      {"measurement": "MIC", "setting": "A. baumannii IHMA 2233099, Guatemala 2020, MDR, read-out: MIC", "value": "> 32", "unit": "µg/mL"},
      {"measurement": "MIC", "setting": "A. baumannii IHMA 2233430, Kazakhstan 2020, MDR, read-out: MIC", "value": "> 32", "unit": "µg/mL"},
      {"measurement": "MIC", "setting": "A. baumannii IHMA 2238964, Thailand 2020, MDR, read-out: MIC", "value": "> 32", "unit": "µg/mL"},
      {"measurement": "MIC", "setting": "A. baumannii IHMA 2239052, Thailand 2020, Non-MDR, read-out: MIC", "value": 0.5, "unit": "µg/mL"},
      {"measurement": "MIC", "setting": "A. baumannii IHMA 2261633, Canada 2020, Non-MDR, read-out: MIC", "value": 0.5, "unit": "µg/mL"},
      {"measurement": "MIC", "setting": "A. baumannii IHMA 2274234, South Africa 2020, MDR, read-out: MIC", "value": 32, "unit": "µg/mL"},
      {"measurement": "MIC", "setting": "A. baumannii IHMA 2274364, South Africa 2020, MDR, read-out: MIC", "value": "> 32", "unit": "µg/mL"},
      {"measurement": "MIC", "setting": "A. baumannii IHMA 2275237, Chile 2020, Non-MDR, read-out: MIC", "value": 1, "unit": "µg/mL"},
      {"measurement": "MIC", "setting": "A. baumannii IHMA 2275751, Jordan 2020, MDR, read-out: MIC", "value": "> 32", "unit": "µg/mL"},
      {"measurement": "MIC", "setting": "A. baumannii IHMA 2316205, United States 2020, MDR, read-out: MIC", "value": "> 32", "unit": "µg/mL"},
      {"measurement": "MIC", "setting": "MDR n = 50, read-out: MAX (maximum MIC; all strains inhibited)", "value": "> 32", "unit": "µg/mL"},
      {"measurement": "MIC50", "setting": "MDR n = 50", "value": "> 32", "unit": "µg/mL"},
      {"measurement": "MIC90", "setting": "MDR n = 50", "value": "> 32", "unit": "µg/mL"},
      {"measurement": "MIC", "setting": "all isolates n = 100, read-out: MAX (maximum MIC; all strains inhibited)", "value": "> 32", "unit": "µg/mL"},
      {"measurement": "MIC50", "setting": "all isolates n = 100", "value": 8, "unit": "µg/mL"},
      {"measurement": "MIC90", "setting": "all isolates n = 100", "value": "> 32", "unit": "µg/mL"},
      {"measurement": "MIC", "setting": "all isolates n = 100, read-out: MIN (minimum MIC)", "value": "≤ 0.25", "unit": "µg/mL"},
      {"measurement": "MIC", "setting": "non-MDR n = 50, read-out: MAX (maximum MIC)", "value": 8, "unit": "µg/mL"},
      {"measurement": "MIC50", "setting": "non-MDR n = 50", "value": 1, "unit": "µg/mL"},
      {"measurement": "MIC90", "setting": "non-MDR n = 50", "value": 4, "unit": "µg/mL"},
      {"measurement": "MIC", "setting": "non-MDR n = 50, read-out: MIN (minimum MIC)", "value": "≤ 0.25", "unit": "µg/mL"},
      {"measurement": "Percentage I", "setting": "MDR n = 50", "value": 6, "unit": "%"},
      {"measurement": "Percentage S", "setting": "MDR n = 50", "value": 0, "unit": "%"},
      {"measurement": "Percentage I", "setting": "all n = 100, CLSI breakpoints", "value": 3, "unit": "%"},
      {"measurement": "Percentage R", "setting": "all n = 100, CLSI breakpoints", "value": 47, "unit": "%"},
      {"measurement": "Percentage S", "setting": "all n = 100, CLSI breakpoints", "value": 50, "unit": "%"},
      {"measurement": "Percentage I", "setting": "non-MDR n = 50", "value": 0, "unit": "%"},
      {"measurement": "Percentage R", "setting": "non-MDR n = 50", "value": 0, "unit": "%"}
    ]}
  ]
}
